The record followed here is ChEMBL document CHEMBL4219210, “Discovery and biological evaluation of novel pyrazolopyridine derivatives as potent and orally available PI3Kδ inhibitors” (Bioorg Med Chem, 2018).

The species named for one series is Homo sapiens. The experiment in a line: Selectivity ratio of IC50 for recombinant human N-terminal His6-tagged full length PI3K p110alpha/untagged recombinant full length human p85alpha to IC50 for recombinant human full length N-terminal His6-tagged PI3K p110delta/untagged recombinant full length human p85alpha expressed in baculovirus infected Sf21 insect cells.

Series [1] has as its target PI3-kinase p110-delta/p85-alpha (Homo sapiens, UniProt O00329). The experiment in a line: Inhibition of recombinant human full length N-terminal His6-tagged PI3K p110delta/untagged recombinant full length human p85alpha expressed in baculovirus infected Sf21 insect cells using PIP2 as substrate after 35 to 40 mins by HTRF assay.
Series [2] in a line: Stability in BALB/c mouse plasma assessed as parent compound remaining at 2 uM after 16 hrs in presence of NaF by LC-MS/MS analysis. The format is ADME, cell-free. Conditions: read-out: Stability.
A short description of series [3]: Stability in BALB/c mouse plasma assessed as parent compound remaining at 2 uM after 16 hrs in absence of NaF by LC-MS/MS analysis. The settings on record: read-out: Stability. The format is ADME, cell-free.
A short description of series [4]: AUC in BALB/c mouse plasma at 3 mg/kg, po by LC-MS/MS analysis. The format is ADME, organism-based.
Series [5] is described as follows: Cmax in BALB/c mouse plasma at 1 mg/kg, iv followed by po dosing at 3 mg/kg by LC-MS/MS analysis. The format is ADME, organism-based.
The nature of series [6]: Tmax in BALB/c mouse plasma at 1 mg/kg, iv followed by po dosing at 3 mg/kg by LC-MS/MS analysis. The format is ADME, organism-based.
Series [7] is described as follows: Half life in BALB/c mouse plasma at 1 mg/kg, iv followed by po dosing at 3 mg/kg by LC-MS/MS analysis. Format: ADME, organism-based.
Series [8] in a line: Volume of distribution at steady state in BALB/c mouse plasma at 1 mg/kg, iv followed by po dosing at 3 mg/kg by LC-MS/MS analysis. Format: ADME, organism-based. Conditions: read-out: Vdss.
Series [9] is described as follows: Total clearance in BALB/c mouse plasma at 1 mg/kg, iv followed by po dosing at 3 mg/kg by LC-MS/MS analysis. The format is ADME, organism-based.
The nature of series [10]: Oral bioavailability in BALB/c mouse plasma at 3 mg/kg by LC-MS/MS analysis. Format: ADME, organism-based.
In another series the target is PI3K p110 beta/p85 alpha (Homo sapiens, UniProt P42338). The series is described as follows: Inhibition of recombinant human full length N-terminal His6-tagged PI3K p110beta/untagged recombinant full length human p85alpha expressed in baculovirus infected Sf21 insect cells using PIP2 as substrate after 35 to 40 mins by HTRF assay. On the technique in general: Time-resolved FRET reads energy transfer from a long-lived donor to a nearby acceptor.

The target of series [11] is Phosphatidylinositol 4,5-bisphosphate 3-kinase catalytic subunit gamma isoform (Homo sapiens, UniProt P48736). The series is described as follows: Inhibition of recombinant human full length N-terminal His-tagged PI3Kgamma expressed in Sf9 insect cells using PIP2 as substrate after 35 to 40 mins by HTRF assay.
In series [12] the target is PI3-kinase p110-alpha/p85-alpha (Homo sapiens, UniProt P42336). The experiment in a line: Inhibition of recombinant human N-terminal His6-tagged full length PI3K p110alpha/untagged recombinant full length human p85alpha expressed in baculovirus infected Sf21 insect cells using phosphatidylinositol as substrate after 3 hrs by kinase glo reagent based luminescence assay. A general note: Kinase-Glo measures the ATP left after a reaction by luminescence.
Sequence of PI3-kinase p110-alpha/p85-alpha (P27986 whole entry): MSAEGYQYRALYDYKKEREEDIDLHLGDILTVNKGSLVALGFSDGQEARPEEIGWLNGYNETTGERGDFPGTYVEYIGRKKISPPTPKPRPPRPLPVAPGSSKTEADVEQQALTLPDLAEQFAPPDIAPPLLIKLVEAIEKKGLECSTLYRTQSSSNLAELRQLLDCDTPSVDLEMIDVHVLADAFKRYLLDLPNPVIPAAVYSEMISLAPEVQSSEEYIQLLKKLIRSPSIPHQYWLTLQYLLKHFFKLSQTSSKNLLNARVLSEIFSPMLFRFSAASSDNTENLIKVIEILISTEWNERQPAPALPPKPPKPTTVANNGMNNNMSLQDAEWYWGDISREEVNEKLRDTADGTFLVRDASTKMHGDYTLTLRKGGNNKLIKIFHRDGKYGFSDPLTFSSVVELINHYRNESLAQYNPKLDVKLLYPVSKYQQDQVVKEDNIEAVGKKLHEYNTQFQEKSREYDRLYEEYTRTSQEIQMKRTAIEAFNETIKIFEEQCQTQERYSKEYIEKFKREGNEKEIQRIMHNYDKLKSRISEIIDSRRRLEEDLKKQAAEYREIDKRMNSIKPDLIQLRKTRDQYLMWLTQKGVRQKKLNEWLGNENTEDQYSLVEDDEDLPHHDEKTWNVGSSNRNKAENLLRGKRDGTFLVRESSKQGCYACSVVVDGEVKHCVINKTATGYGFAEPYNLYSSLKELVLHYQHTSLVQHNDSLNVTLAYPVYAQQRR
Sequence of PI3-kinase p110-alpha/p85-alpha (P42336 whole entry): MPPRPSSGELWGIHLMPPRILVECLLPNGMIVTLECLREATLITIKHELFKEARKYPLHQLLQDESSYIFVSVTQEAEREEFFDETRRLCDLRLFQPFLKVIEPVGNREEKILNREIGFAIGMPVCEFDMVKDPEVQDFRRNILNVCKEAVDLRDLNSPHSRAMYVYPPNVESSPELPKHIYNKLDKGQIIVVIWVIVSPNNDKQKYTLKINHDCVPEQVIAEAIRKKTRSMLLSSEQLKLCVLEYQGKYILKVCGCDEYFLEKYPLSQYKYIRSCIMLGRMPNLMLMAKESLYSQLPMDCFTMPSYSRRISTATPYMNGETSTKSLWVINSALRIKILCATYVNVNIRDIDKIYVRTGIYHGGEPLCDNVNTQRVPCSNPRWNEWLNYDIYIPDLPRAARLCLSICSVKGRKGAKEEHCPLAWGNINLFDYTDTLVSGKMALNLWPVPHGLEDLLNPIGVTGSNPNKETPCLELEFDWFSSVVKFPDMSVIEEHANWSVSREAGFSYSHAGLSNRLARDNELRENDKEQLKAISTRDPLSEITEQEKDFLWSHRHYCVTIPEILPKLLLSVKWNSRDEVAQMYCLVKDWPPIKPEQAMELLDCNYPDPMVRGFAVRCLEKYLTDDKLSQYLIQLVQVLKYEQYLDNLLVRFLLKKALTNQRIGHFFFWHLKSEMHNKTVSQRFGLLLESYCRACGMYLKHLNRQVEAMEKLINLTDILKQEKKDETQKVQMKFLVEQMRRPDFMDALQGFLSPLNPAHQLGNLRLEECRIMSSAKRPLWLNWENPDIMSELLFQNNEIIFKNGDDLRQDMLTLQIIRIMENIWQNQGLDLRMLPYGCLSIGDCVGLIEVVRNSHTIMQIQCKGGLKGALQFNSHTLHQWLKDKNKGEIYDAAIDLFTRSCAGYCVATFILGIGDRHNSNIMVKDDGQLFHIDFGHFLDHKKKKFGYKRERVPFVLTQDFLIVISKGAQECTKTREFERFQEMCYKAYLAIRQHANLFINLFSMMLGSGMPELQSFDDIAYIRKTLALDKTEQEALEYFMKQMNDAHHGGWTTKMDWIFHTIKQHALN

Sequence of PI3-kinase p110-delta/p85-alpha (P27986 whole entry): as the sequence (P27986 whole entry) above
Sequence of PI3-kinase p110-delta/p85-alpha (O00329 whole entry): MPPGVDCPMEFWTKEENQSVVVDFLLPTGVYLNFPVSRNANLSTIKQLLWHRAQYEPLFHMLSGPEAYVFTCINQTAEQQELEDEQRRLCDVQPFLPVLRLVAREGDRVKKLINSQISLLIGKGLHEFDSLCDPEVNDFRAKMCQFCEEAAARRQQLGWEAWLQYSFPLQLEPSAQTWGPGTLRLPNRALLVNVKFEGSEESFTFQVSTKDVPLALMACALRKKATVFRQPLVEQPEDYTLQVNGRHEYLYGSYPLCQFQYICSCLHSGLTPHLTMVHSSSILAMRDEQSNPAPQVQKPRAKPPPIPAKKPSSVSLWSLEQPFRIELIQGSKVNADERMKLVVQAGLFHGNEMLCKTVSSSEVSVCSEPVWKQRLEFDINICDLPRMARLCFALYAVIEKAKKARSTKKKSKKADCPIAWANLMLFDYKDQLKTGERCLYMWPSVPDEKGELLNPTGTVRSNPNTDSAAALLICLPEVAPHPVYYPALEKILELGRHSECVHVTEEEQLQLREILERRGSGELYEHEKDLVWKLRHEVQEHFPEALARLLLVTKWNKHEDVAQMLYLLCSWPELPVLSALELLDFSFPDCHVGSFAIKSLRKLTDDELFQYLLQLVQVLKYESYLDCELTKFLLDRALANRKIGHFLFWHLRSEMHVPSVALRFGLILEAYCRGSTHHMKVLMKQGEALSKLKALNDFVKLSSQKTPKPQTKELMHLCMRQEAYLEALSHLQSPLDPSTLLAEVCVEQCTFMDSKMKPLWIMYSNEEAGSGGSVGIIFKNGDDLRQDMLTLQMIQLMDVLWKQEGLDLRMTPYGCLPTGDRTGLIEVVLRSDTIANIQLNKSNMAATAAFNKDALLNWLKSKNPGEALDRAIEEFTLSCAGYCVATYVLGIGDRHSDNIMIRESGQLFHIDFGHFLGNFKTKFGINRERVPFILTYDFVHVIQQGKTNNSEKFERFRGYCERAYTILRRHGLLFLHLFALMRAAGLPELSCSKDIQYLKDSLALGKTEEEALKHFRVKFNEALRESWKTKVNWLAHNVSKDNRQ
Sequence of Phosphatidylinositol 4,5-bisphosphate 3-kinase catalytic subunit gamma isoform (P48736 whole entry, canonical isoform): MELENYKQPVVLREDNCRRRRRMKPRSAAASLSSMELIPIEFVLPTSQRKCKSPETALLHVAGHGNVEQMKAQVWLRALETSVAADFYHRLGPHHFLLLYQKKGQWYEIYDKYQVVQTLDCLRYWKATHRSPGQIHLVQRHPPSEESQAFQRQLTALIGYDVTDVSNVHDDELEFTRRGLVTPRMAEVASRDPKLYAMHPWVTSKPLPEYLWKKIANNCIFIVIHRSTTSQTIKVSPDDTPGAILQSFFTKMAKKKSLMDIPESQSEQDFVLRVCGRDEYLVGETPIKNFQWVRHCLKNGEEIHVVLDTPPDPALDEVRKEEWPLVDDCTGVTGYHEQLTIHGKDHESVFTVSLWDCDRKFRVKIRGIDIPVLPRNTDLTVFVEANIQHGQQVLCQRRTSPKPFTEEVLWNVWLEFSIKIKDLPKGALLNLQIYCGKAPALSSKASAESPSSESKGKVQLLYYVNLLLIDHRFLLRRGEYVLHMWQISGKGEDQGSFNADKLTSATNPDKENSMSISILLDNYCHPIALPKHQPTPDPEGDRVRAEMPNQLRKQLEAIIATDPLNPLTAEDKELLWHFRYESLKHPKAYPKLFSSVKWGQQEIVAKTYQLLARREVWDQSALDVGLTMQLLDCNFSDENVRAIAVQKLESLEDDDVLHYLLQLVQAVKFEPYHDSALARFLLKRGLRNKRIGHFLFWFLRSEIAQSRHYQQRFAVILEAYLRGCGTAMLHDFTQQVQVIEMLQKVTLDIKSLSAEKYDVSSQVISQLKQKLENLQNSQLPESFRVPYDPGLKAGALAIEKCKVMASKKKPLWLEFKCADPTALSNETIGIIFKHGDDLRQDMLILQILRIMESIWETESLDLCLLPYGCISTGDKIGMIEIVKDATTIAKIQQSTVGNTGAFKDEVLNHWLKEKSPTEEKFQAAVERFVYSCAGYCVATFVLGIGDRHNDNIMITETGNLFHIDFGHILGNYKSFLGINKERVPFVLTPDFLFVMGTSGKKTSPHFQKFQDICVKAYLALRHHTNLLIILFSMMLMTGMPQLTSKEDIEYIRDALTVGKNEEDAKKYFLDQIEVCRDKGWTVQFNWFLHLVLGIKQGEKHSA
Sequence of PI3K p110 beta/p85 alpha (P27986 whole entry): as the sequence (P27986 whole entry) above
Sequence of PI3K p110 beta/p85 alpha (P42338 whole entry): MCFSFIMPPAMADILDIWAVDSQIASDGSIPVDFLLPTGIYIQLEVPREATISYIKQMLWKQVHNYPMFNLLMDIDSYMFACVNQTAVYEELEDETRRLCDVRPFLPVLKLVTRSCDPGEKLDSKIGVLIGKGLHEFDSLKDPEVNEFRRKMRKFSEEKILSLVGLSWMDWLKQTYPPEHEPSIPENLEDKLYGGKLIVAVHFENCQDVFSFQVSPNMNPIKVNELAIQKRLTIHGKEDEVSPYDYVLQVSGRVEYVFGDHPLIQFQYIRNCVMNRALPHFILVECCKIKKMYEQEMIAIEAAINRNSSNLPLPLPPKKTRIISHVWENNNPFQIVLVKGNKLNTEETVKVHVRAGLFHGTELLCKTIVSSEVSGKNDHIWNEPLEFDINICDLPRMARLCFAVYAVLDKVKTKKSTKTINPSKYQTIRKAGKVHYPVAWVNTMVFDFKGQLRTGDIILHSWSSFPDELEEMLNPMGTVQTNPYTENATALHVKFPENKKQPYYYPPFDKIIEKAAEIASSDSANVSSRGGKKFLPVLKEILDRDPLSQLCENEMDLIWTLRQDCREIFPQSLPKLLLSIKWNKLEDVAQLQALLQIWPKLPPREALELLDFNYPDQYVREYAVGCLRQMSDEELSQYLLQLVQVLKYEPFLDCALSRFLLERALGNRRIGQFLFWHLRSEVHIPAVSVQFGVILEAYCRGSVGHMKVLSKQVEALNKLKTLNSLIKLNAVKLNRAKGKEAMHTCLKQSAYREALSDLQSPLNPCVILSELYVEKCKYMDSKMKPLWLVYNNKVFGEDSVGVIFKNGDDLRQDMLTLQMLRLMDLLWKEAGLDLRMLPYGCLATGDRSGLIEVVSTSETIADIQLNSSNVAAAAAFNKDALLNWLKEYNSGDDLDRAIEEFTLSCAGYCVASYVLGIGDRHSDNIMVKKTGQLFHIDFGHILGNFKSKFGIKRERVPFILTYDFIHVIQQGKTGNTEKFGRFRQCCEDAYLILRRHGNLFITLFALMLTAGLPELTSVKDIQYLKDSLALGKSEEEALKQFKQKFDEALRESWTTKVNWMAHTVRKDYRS

A word on the IC50: it is the concentration that inhibits the measured activity by half. As for `COc1ncc(-c2cc(O[C@@H]3CCN(C(=O)c4ccccc4)C3)c3cnn(C)c3n2)cc1NS(C)(=O)=O`, in the series listed under Homo sapiens, the Ratio IC50 was 5.3. Besides, the IC50 in [1] amounted to 16 nM.
For `COc1ncc(-c2cc(NC(=O)c3coc(CN4CCN(CCN5CCOCC5)CC4)n3)c3cnn(C)c3n2)cc1NS(C)(=O)=O`, the remaining at 16 h, 2 µM in series [2] is 92.3%; in series [3], 17.6%. In addition, the Ratio IC50 in the series listed under Homo sapiens amounted to 250. Moreover, the IC50 in series [1] was 3.3 nM.
For `COc1ncc(-c2cc(N[C@@H]3CCN(C(=O)C4CCOCC4)C3)c3cnn(C)c3n2)cc1NS(C)(=O)=O`, the Ratio IC50 in the series listed under Homo sapiens is 3.2. Also, in series [1], the IC50 worked out at 110 nM.
The like results for `COc1ncc(-c2cc(O[C@@H]3CCN(C(=O)CC4CCOCC4)C3)c3cnn(C)c3n2)cc1NS(C)(=O)=O` were, in that order, 17 and 36 nM.
For `COc1ncc(-c2cc(O[C@@H]3CCN(Cc4ccccc4)C3)c3cnn(C)c3n2)cc1NS(C)(=O)=O`, the Ratio IC50 in the series filed under Homo sapiens was determined as 160. Further, the IC50 in series [1] came to 4.5 nM.
Usually AUC stands for the area under the concentration-time curve, a measure of exposure. The Cmax is the peak of the concentration-time curve. As a reminder, the Tmax is the time from dosing to the highest level. By half-life is commonly meant the time in which the quantity being followed falls by half. Lower therefore signals fast loss. The bioavailability is the share of a dose that reaches the circulation, judged against a reference dose that is usually intravenous. Low values mean little systemic uptake, high ones much systemic uptake. In series [4], `COc1ncc(-c2cc(O[C@@H]3CCN(C(=O)C4CCOCC4)C3)c3cnn(C)c3n2)cc1NS(C)(=O)=O` showed an AUC of 1640 ng·h/mL. The peak level in series [5] (Cmax) was 861 ng/mL. Also, the Tmax in series [6] was 15 min. Besides, the half-life in series [7] is 151 min. The Vd in series [8] came to 2.37 L/kg. In addition, the clearance in series [9] worked out at 24.5 mL/min/kg. Moreover, in [3], the remaining at 16 h, 2 µM came out at 109%. Also, in the series listed under Homo sapiens, the Ratio IC50 is 92. Also, in [1], the IC50 was determined as 5.3 nM. In addition, the bioavailability in series [10] worked out at 71.1%.
As for `COc1ncc(-c2cc(O[C@@H]3CCN(Cc4c(C)nn(C)c4C)C3)c3cnn(C)c3n2)cc1NS(C)(=O)=O`, the concentration for half-maximal inhibition (IC50) on PI3K p110 beta/p85 alpha is 520 nM; in [1], 4.5 nM; in [11] it was greater than 10000 nM. Also, the exposure (AUC) in series [4] was determined as 346 ng·h/mL. This molecule returned a Cmax in series [5] of 298 ng/mL. Also, the Tmax in series [6] was 15 min. For the same molecule, in series [7], the half-life is 84.6 min. Moreover, in [8], the Vd stood at 2.82 L/kg. The molecule also showed a clearance in [9] of 68.3 mL/min/kg. The Ratio IC50 in the series filed under Homo sapiens was found to be 320. The molecule further registered a bioavailability in [10] of 49%.
For the molecule `COc1ncc(-c2cc(NC(=O)c3coc(CN4CCN(Cc5cccnc5)CC4)n3)c3cnn(C)c3n2)cc1NS(C)(=O)=O`, the remaining at 16 h, 2 µM in series [2] stood at 90.3%; in series [3] it was 0.5%. Further, in the series listed under Homo sapiens, the Ratio IC50 was determined as 290. Besides, the IC50 in [1] was 0.75 nM.
On to `COc1ncc(-c2cc(O[C@@H]3CCN(C(=O)C4(C)CCOCC4)C3)c3cnn(C)c3n2)cc1NS(C)(=O)=O`, for which the IC50 in series [1] amounted to 18 nM.
Regarding `COc1ncc(-c2cc(O[C@@H]3CCN(Cc4cnn(C)c4)C3)c3cnn(C)c3n2)cc1NS(C)(=O)=O`, in the series filed under Homo sapiens, the Ratio IC50 was determined as 71. The IC50 in series [1] came to 8.2 nM.
The like results for `COc1ncc(-c2cc(O[C@@H]3CCN(S(=O)(=O)C4CCOCC4)C3)c3cnn(C)c3n2)cc1NS(C)(=O)=O` were, in that order, 2 and 38 nM.
In series [4], `COc1ncc(-c2cc(NC(=O)c3coc(CN4CCN(C(C)C)CC4)n3)c3cnn(C)c3n2)cc1NS(C)(=O)=O` yielded an AUC of 45.6 ng·h/mL. The molecule further returned a Cmax in series [5] of 19.9 ng/mL. In series [6], the Tmax worked out at 120 min. Moreover, in series [7], the half-life was 22 min. In addition, the Vd in [8] turned out to be 4.03 L/kg. Further, the clearance in series [9] worked out at 170 mL/min/kg. Besides, the remaining at 16 h, 2 µM in [2] amounted to 79.7%; in [3], 0.4%. Also, the Ratio IC50 in the series listed under Homo sapiens was determined as 40. Besides, the figures for the IC50 in series [1] and in series [12] were 8.4 nM and 330 nM, respectively. Also, the bioavailability in series [10] came out at 16%.
Regarding `COc1ncc(-c2cc(N(C)[C@@H]3CCN(C(=O)C4CCOCC4)C3)c3cnn(C)c3n2)cc1NS(C)(=O)=O`, the half-maximal inhibitory concentration (IC50) in series [1] was found to be 230 nM.
Regarding `COc1ncc(-c2cc(O[C@@H]3CCN(C4CCOCC4)C3)c3cnn(C)c3n2)cc1NS(C)(=O)=O`, in the series filed under Homo sapiens, the Ratio IC50 is 21. Moreover, the IC50 in series [1] is 52 nM.
The like results for `COc1ncc(-c2cc(O[C@@H]3CCN(CC4CCOCC4)C3)c3cnn(C)c3n2)cc1NS(C)(=O)=O` were, in that order, 29 and 18 nM.
The like results for `COc1ncc(-c2cc(O[C@H]3CCN(C(=O)C4CCOCC4)C3)c3cnn(C)c3n2)cc1NS(C)(=O)=O` were, in that order, 13 and 53 nM.
